Results published in patent US9790252B2, “2-fluorinated riboses and arabinoses and methods of use and synthesis” (CORNELL UNIVERSITY, priority 2009, dated 2017).

How the values were obtained:
SirT1 = target: T1, SirT1 (Homo sapiens, UniProt Q96EB6); test: SirT1 activity assay (HPLC of 2′- and 3′-AADPR); assay type: biochemical; conditions: 200 μM NAD+, 100 μM JB12 peptide; for SirT1 Ki / Ki: pH 7.5, 30 mins at 37° C.; for SirT1 inhibition (in words): pH 7.5
T1 sequence (Q96EB6 1-747): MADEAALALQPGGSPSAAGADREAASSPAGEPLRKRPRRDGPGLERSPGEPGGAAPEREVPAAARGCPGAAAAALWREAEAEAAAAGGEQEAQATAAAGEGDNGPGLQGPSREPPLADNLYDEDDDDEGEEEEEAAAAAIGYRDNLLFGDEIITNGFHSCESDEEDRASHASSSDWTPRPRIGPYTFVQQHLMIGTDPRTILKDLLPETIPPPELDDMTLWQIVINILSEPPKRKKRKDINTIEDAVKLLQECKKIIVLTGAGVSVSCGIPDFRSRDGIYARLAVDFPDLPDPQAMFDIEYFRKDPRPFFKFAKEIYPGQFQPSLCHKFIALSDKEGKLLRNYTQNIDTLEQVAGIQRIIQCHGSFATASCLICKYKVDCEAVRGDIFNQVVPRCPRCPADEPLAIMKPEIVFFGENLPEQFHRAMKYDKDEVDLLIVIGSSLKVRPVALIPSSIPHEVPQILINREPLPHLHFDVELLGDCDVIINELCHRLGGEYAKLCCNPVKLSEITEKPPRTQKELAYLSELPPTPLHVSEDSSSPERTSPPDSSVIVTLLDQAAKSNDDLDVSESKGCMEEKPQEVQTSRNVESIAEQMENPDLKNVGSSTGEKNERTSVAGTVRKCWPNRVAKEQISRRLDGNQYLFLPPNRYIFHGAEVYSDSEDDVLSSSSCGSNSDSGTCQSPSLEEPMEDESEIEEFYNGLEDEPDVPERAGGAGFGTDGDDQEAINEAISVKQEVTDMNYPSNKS
Protocol: (§1) Reactions containing 200 μM NAD^+, 100 μM JB12 peptide, and 100 mM phosphate buffer at pH 7.5, with varying concentrations of 2′-deoxy-2′-fluoro-nucleosides or nucleotides were initiated by addition of SirT1 enzyme to a concentration of 12.9 μM. Reactions were incubated for 30 mins at 37° C. and quenched by addition of trifluoroacetic acid to pH 2. After centrifugation to remove precipitates, reactions were injected on HPLC for activity analysis. Production of 2′- and 3′-AADPR were analyzed at 260 nm.
as §1, with “SirT1 Activity Assay: Reactions containing” for “Reactions containing”, “concentrations of 2′-deoxy-2′-chloro-nucleosides were initiated” for “concentrations of 2′-deoxy-2′-fluoro-nucleosides or nucleotides were initiated”

SirT3 = target: T2, SirT3 (Homo sapiens, UniProt Q9NTG7); test: SirT3 activity assay (HPLC of 2′- and 3′-AADPR); assay type: biochemical; conditions: 800 μM NAD+, 500 μM H3 peptide, pH 7.5, 2 hours at 37° C.
T2 sequence (Q9NTG7 1-399): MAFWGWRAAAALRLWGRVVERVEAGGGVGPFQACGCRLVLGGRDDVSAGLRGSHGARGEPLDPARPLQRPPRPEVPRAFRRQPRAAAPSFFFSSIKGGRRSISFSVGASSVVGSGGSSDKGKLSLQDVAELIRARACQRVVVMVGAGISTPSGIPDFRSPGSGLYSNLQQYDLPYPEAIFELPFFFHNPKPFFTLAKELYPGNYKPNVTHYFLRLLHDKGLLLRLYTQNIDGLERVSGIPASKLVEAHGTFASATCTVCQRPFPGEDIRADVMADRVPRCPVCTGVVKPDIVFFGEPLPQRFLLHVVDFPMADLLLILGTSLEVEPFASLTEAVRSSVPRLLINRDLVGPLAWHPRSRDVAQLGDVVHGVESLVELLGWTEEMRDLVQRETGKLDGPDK
Protocol: as §1, with “containing 800” for “containing 200”, “NAD^+, 500” for “NAD^+, 100”, “μM H3” for “μM JB12”, “of SirT3” for “of SirT1”, “of 13.9” for “of 12.9”, “for 2 hours” for “for 30 mins”
SirT3 Activity Assay: Reactions containing 800 μM NAD^+, 500 μM H3 peptide, and 100 mM phosphate buffer at pH 7.5, with varying concentrations of 2′-deoxy-2′-chloro-nucleosides were initiated by addition of SirT3 enzyme to a concentration of 13.9 μM. Reactions were incubated for 2 hours at 37° C. and quenched by addition of trifluoroacetic acid to pH 2. After centrifugation to remove precipitates, reactions were injected on HPLC for activity analysis. Production of 2′- and 3′-AADPR were analyzed at 260 nm.

Neuro2A cells = test: Toxicity to Neuro2A cells (MTT); assay type: cell-based; conditions: for 100 μM absorbance / 100 μM relative viability / 500 μM absorbance / 500 μM relative viability: 12 hours; for 100 μM absorbance / 500 μM absorbance: 570 nm
Protocol: 6. Neuro2A cells were seeded in 96-well plate at a density of 25,000 cells/well the day before the experiment starts;
7. After the cells reach 50˜60% confluency, media was taken out, and 100 μL of fresh media was added to each well;
8. […]
9. After 12 hours' incubation at 37° C., the media was taken out, 100 μL of fresh media was added to each well along with 20 μL of 5 mg/mL of MTT solution (in PBS);
10. After 1.5 hours' incubation at 37° C., media was taken out and 100 μL of DMSO was added to each well, the plate was mixed on shaker for 5 mins;
Absorbance was measured at 570 nm.
Assay for Determining Toxicity to HEK293 and Neuro2A Cells • 1. HEK293 and Neuro2A cells were seeded in 96-well plate at a density of 25,000 cells/well the day before the experiment starts; • 2. After the cells reach 50˜60% confluency, media was taken out, and 100 μL of fresh media was added to each well; • 3. […] After 12 hours' incubation at 37° C., the media was taken out, 100 μL of fresh media was added to each well along with 20 μL of 5 mg/mL of MTT solution (in PBS); • 5. After 2 hours' incubation at 37° C., media was taken out and 100 μL of DMSO was added to each well, the plate was mixed on shaker for 5 mins; • 6. Absorbance was measured at 570 nm.

[1] = Mus musculus, N2a, 2′-deoxy-2′-fluoro-nucleosides and nucleotides
[2] = MTT 2 hours, chloro-nucleosides
[3] = control = 1, chloro-nucleosides

NC(=O)c1ccc[n+]([C@@H]2O[C@H](CO)C(O)C2F)c1 (stereo partly shown) [ara-F-NR, 1-(2′-deoxy-2′-fluoro-arabinofuranosyl)-nicotinamide]
SirT1 Ki (SirT1): Ki = high mM
Ki (SirT3): 623 µM
100 μM absorbance (Neuro2A cells; MTT 1.5 hours): 2.0227
100 μM relative viability (Neuro2A cells; control = 1): 0.831
500 μM absorbance (Neuro2A cells; MTT 1.5 hours): 2.0666
500 μM relative viability (Neuro2A cells; control = 1): 0.849
EC50 (Neuro2A cells; [1]): 3840 µM

NC(=O)c1ccc[n+]([C@@H]2O[C@H](COP(=O)([O-])O)C(O)C2(F)F)c1 (stereo partly shown) [gem-diF-NMN, 2′-deoxy-2′,2′-difluoro-ribo-nicotinamide mononucleotide]
Ki (SirT1): 18 µM
Ki (SirT3): 128 µM
100 μM absorbance (Neuro2A cells; MTT 1.5 hours): 1.0774
100 μM relative viability (Neuro2A cells; control = 1): 0.443
500 μM absorbance (Neuro2A cells; MTT 1.5 hours): 0.0217
500 μM relative viability (Neuro2A cells; control = 1): 0.009
EC50 (Neuro2A cells; [1]): 64 µM

NC(=O)c1ccc[n+]([C@@H]2O[C@H](CO)[C@@H](O)C2(F)F)c1 [gem-diF-NR, 1-(2′-deoxy-2′,2′-difluoro-ribofuranosyl)-nicotinamide]
SirT1 inhibition (in words) (SirT1): no inhibition
SirT3 Ki (SirT3): Ki = high mM
100 μM absorbance (Neuro2A cells; MTT 1.5 hours): 0.8234
100 μM relative viability (Neuro2A cells; control = 1): 0.338
500 μM absorbance (Neuro2A cells; MTT 1.5 hours): 0.5374
500 μM relative viability (Neuro2A cells; control = 1): 0.221
EC50 (Neuro2A cells; [1]): 61 µM

NC(=O)c1ccc[n+]([C@@H]2O[C@H](COP(=O)([O-])O)C(O)C2F)c1 (stereo partly shown) [ribo-F-NMN, 2′-deoxy-2′-fluoro-ribo-nicotinamide mononucleotide]
SirT1 inhibition (in words) (SirT1): no inhibition
Ki (SirT3): 106 µM
100 μM absorbance (Neuro2A cells; MTT 1.5 hours): 2.2023
100 μM relative viability (Neuro2A cells; control = 1): 0.905
500 μM absorbance (Neuro2A cells; MTT 1.5 hours): 1.7872
500 μM relative viability (Neuro2A cells; control = 1): 0.735
EC50 (Neuro2A cells; 2′-deoxy-2′-fluoro-nucleosides and nucleotides): 1400 µM

NC(=O)c1ccc[n+]([C@@H]2O[C@H](CO)C(O)[C@@H]2F)c1 (stereo partly drawn) [ribo-F-NR, 1-(2-deoxy-2-fluoro-D-ribofuranosyl)-nicotinamide]
Ki (SirT1): 200 µM
Ki (SirT3): 250 µM
100 μM absorbance (Neuro2A cells; MTT 1.5 hours): 1.8769
100 μM relative viability (Neuro2A cells; control = 1): 0.771
500 μM absorbance (Neuro2A cells; MTT 1.5 hours): 0.8391
500 μM relative viability (Neuro2A cells; control = 1): 0.345
EC50 (Neuro2A cells; [1]): 281 µM

NC(=O)c1ccc[n+]([C@@H]2O[C@H](CO)C(O)C2Cl)c1 (stereo partly drawn) [β-ara-Cl-NR, 1-(2′-deoxy-2′-chloro-arabinofuranosyl)-nicotinamide]
SirT1 Ki (SirT1): Ki = high mM
Ki (SirT3): 546 µM
100 μM absorbance (Neuro2A cells; [2]): 0
100 μM relative viability (Neuro2A cells; [3]): 0
500 μM absorbance (Neuro2A cells; [2]): 0
500 μM relative viability (Neuro2A cells; [3]): 0
EC50 (Neuro2A cells; Mus musculus, N2a, 2′-deoxy-2′-chloro-nucleosides): 9 µM

NC(=O)c1ccc[n+]([C@@H]2O[C@H](CO)C(O)C2(Cl)Cl)c1 (stereo partly drawn) [β-gem-diCl-NR, 1-(2′-deoxy-2′,2′-dichloro-ribofuranosyl)-nicotinamide]
Ki (SirT1): 780 µM
Ki (SirT3): 123 µM
100 μM absorbance (Neuro2A cells; [2]): 2.615
100 μM relative viability (Neuro2A cells; [3]): 1.106
500 μM absorbance (Neuro2A cells; [2]): 2.63
500 μM relative viability (Neuro2A cells; [3]): 1.112
toxicity to Neuro2A (in words) (Neuro2A cells; at 500 μM): not toxic at 500 μM
